Source: US11117915B2, “Antibacterial aminoglycoside analogs” (Cipla USA, Inc., priority 2007, dated 2021)
≈ marks a conversion by molar mass, not a printed value. Like-named read-outs stand apart in the source and are kept apart here.

Tests used:
[1] = system: P. aeruginosa ATCC 27853; assay: MIC assay, CLSI broth microdilution, P. aeruginosa ATCC 27853 (APAE001); format: cell-based; details: Pseudomonas aeruginosa, read-out: MIC APAE001
Procedure: (§1) Minimum inhibitory concentrations (MIC) were determined by reference Clinical and Laboratory Standards Institute (CLSI) broth microdilution methods per M7-A7 [2006]. Quality control ranges utilizing E. coli ATCC 25922, P. aeruginosa ATCC 27853 and S. aureus ATCC 29213, and interpretive criteria for comparator agents were as published in CLSI M100-S17 [2007]. Briefly, serial two-fold dilutions of the test compounds were prepared at 2× concentration in Mueller Hinton Broth. The compound dilutions were mixed in 96-well assay plates in a 1:1 ratio with bacterial inoculum. The inoculum was prepared by suspension of a colony from an agar plate that was prepared the previous day. Bacteria were suspended in sterile saline and added to each assay plate to obtain a final concentration of 5×10^5 CFU/mL. The plates were incubated at 35° C. for 20 hours in ambient air.

[2] = system: E. coli ATCC 25922; assay: MIC assay, CLSI broth microdilution, E. coli ATCC 25922 (AECO001); format: cell-based; details: for MIC: Escherichia coli, read-out: MIC AECO001; for MIC AECO001: Table 3, E. coli ATCC25922
Procedure: as §1
These MIC assays were conducted following the same protocol as set forth in Example 110. As shown, substituted sisomicin derivatives with groups other than methyl at the 6′-position have improved activity against strains expressing the AAC6′-modifying enzymes.

[3] = APAE001 is ATCC27853, 35° C., 20 hours
[4] = AECO001 is ATCC25922, 35° C., 20 hours

Row | Compound | MIC ([1]; ATCC27853, 20 h) | MIC ([2]; ATCC25922, 20 h) | MIC [1, 3] | MIC [2, 4] | MIC AECO001 [2]
1 | CN[C@@H]1[C@@H](O)[C@@H](O[C@@H]2[C@@H](O)[C@H](O[C@H]3OC(CNCCO)=CC[C@H]3N)[C@@H](N)C[C@H]2NC(=O)[C@H](O)CCN)OC[C@]1(C)O [Example 2, 6′-(2-Hydroxy-ethyl)-1-(4-amino-2(R)-hydroxy-butyryl)-sisomicin] | 1 to 16 µg/mL (≈ 1.69 to 27 µM) | 1 to 16 µg/mL (≈ 1.69 to 27 µM) |  |  | 
2 | CN[C@@H]1[C@@H](O)[C@@H](O[C@@H]2[C@@H](O)[C@H](O[C@H]3OC(CNCC(O)CO)=CC[C@H]3N)[C@@H](N)C[C@H]2NC(=O)[C@H](O)CCN)OC[C@]1(C)O (stereo partly drawn) [Example 3, 6′-(2-Hydroxy-propanol)-1-(4-amino-2(R)-hydroxy-butyryl)-sisomicin] | > 16 µg/mL | 1 to 16 µg/mL (≈ 1.61 to 25.7 µM) |  |  | 
3 | CN[C@@H]1[C@@H](O)[C@@H](O[C@@H]2[C@@H](O)[C@H](O[C@H]3OC(CNCC4CCNCC4)=CC[C@H]3N)[C@@H](N)C[C@H]2NC(=O)[C@H](O)CCN)OC[C@]1(C)O [Example 4, 6′-(Methyl-piperidin-4-yl)-1-(4-amino-2(R)-hydroxy-butyryl)-sisomicin] | 1 to 16 µg/mL (≈ 1.55 to 24.8 µM) | 1 to 16 µg/mL (≈ 1.55 to 24.8 µM) |  |  | 
4 | CN[C@@H]1[C@@H](O)[C@@H](O[C@@H]2[C@@H](O)[C@H](O[C@H]3OC(CNCC4CC4)=CC[C@H]3N)[C@@H](N)C[C@H]2NC(=O)[C@H](O)CCN)OC[C@]1(C)O [Example 5, 6′-(Methyl-cyclopropyl)-1-(4-amino-2(R)-hydroxy-butyryl)-sisomicin] | 1 to 16 µg/mL (≈ 1.66 to 26.5 µM) | < 1 µg/mL |  |  | 
5 | CN[C@@H]1[C@@H](O)[C@@H](O[C@@H]2[C@@H](O)[C@H](O[C@H]3OC(CNCCCN)=CC[C@H]3N)[C@@H](N)C[C@H]2NC(=O)[C@H](O)CCN)OC[C@]1(C)O [Example 6, 6′-(3-Amino-propyl)-1-(4-amino-2(R)-hydroxy-butyryl)-sisomicin] | 1 to 16 µg/mL (≈ 1.65 to 26.4 µM) | 1 to 16 µg/mL (≈ 1.65 to 26.4 µM) |  |  | 
6 | CN[C@@H]1[C@@H](O)[C@@H](O[C@@H]2[C@@H](O)[C@H](O[C@H]3OC(CNCC4CC4)=CC[C@H]3N)[C@@H](N)C[C@H]2NC(=O)[C@H](O)CN)OC[C@]1(C)O [Example 7, 6′-Methyl-cyclopropyl-1-(3-amino-2(R)-hydroxy-propionyl)-sisomicin] | 1 to 16 µg/mL (≈ 1.7 to 27.2 µM) | < 1 µg/mL |  |  | 
7 | CN[C@@H]1[C@@H](O)[C@@H](O[C@@H]2[C@@H](O)[C@H](O[C@H]3OC(CNCC4CCNCC4)=CC[C@H]3N)[C@@H](N)C[C@H]2NC(=O)[C@H](O)CN)OC[C@]1(C)O [Example 8, 6′-Methyl-piperidinyl-1-(3-amino-2(R)-hydroxy-propionyl)-sisomicin] | 1 to 16 µg/mL (≈ 1.58 to 25.3 µM) | < 1 µg/mL |  |  | 
8 | CN[C@@H]1[C@@H](O)[C@@H](O[C@@H]2[C@@H](O)[C@H](O[C@H]3OC(CNCCO)=CC[C@H]3N)[C@@H](N)C[C@H]2NC(=O)[C@H](O)CN)OC[C@]1(C)O [Example 9, 6′-(2-Hydroxy-ethyl)-1-(3-amino-2(R)-hydroxy-propionyl)-sisomicin] | > 16 µg/mL | 1 to 16 µg/mL (≈ 1.73 to 27.6 µM) |  |  | 
9 | CN[C@@H]1[C@@H](O)[C@@H](O[C@@H]2[C@@H](O)[C@H](O[C@H]3OC(CNCC(O)CO)=CC[C@H]3N)[C@@H](N)C[C@H]2NC(=O)[C@H](O)CN)OC[C@]1(C)O (stereo partly drawn) [Example 10, 6′-(2-Hydroxy-propanol)-1-(3-amino-2(R)-hydroxy-propionyl)-sisomicin] | 1 to 16 µg/mL (≈ 1.64 to 26.3 µM) | 1 to 16 µg/mL (≈ 1.64 to 26.3 µM) |  |  | 
10 | CN[C@@H]1[C@@H](O)[C@@H](O[C@@H]2[C@@H](O)[C@H](O[C@H]3OC(CNCCCN)=CC[C@H]3N)[C@@H](N)C[C@H]2NC(=O)[C@H](O)CN)OC[C@]1(C)O [Example 11, 6′-(3-Amino-propyl)-1-(3-amino-2(R)-hydroxy-propionyl)-sisomicin] | 1 to 16 µg/mL (≈ 1.69 to 27 µM) | < 1 µg/mL |  |  | 
11 | CN[C@@H]1[C@@H](O)[C@@H](O[C@@H]2[C@@H](O)[C@H](O[C@H]3OC(CNCC4CCNCC4)=CC[C@H]3N)[C@@H](N)C[C@H]2NC(=O)[C@@H](O)CCN)OC[C@]1(C)O [Example 12, 6′-(Methyl-piperidin-4-yl)-1-(4-amino-2(S)-hydroxy-butyryl)-sisomicin] |  |  | 1 to 16 µg/mL (≈ 1.55 to 24.8 µM) | 1 to 16 µg/mL (≈ 1.55 to 24.8 µM) | 1 µg/mL (≈ 1.55 µM)
12 | CN[C@@H]1[C@@H](O)[C@@H](O[C@@H]2[C@@H](O)[C@H](O[C@H]3OC(CNCC4CC4)=CC[C@H]3N)[C@@H](N)C[C@H]2NC(=O)[C@@H](O)CN)OC[C@]1(C)O [Example 13, 6′-(Methyl-cyclopropyl)-1-(3-amino-2(S)-hydroxy-propionyl)-sisomicin] |  |  | > 16 µg/mL | 1 to 16 µg/mL (≈ 1.7 to 27.2 µM) | 1 µg/mL (≈ 1.7 µM)
13 | CN[C@@H]1[C@@H](O)[C@@H](O[C@@H]2[C@@H](O)[C@H](O[C@H]3OC(CNCC(O)CO)=CC[C@H]3N)[C@@H](N)C[C@H]2NC(=O)[C@@H](O)CN)OC[C@]1(C)O (stereo partly drawn) [Example 14, 6′-(2-Hydroxy-propanol)-1-(3-amino-2(S)-hydroxy-propionyl)-sisomicin] | 1 to 16 µg/mL (≈ 1.64 to 26.3 µM) | 1 to 16 µg/mL (≈ 1.64 to 26.3 µM) |  |  | 
14 | CN[C@@H]1[C@@H](O)[C@@H](O[C@@H]2[C@@H](O)[C@H](O[C@H]3OC(CNCC4CC4)=CC[C@H]3N)[C@@H](N)C[C@H]2NC(=O)[C@@H](O)CCN)OC[C@]1(C)O [Example 18, 6′-(Methyl-cyclopropyl)-1-(4-amino-2(S)-hydroxy-butyryl)-sisomicin] |  |  | 1 to 16 µg/mL (≈ 1.66 to 26.5 µM) | < 1 µg/mL | 1 µg/mL (≈ 1.66 µM)
15 | CN[C@@H]1[C@@H](O)[C@@H](O[C@@H]2[C@@H](O)[C@H](O[C@H]3OC(CNCC(O)CO)=CC[C@H]3N)[C@@H](N)C[C@H]2NC(=O)[C@@H](O)CCN)OC[C@]1(C)O (stereo partly drawn) [Example 19, 6′-(2-Hydroxy-propanol)-1-(4-amino-2(S)-hydroxy-butyryl)-sisomicin] | 1 to 16 µg/mL (≈ 1.61 to 25.7 µM) | < 1 µg/mL |  |  | 
16 | CN[C@@H]1[C@@H](O)[C@@H](O[C@@H]2[C@@H](O)[C@H](O[C@H]3OC(CNC(=O)C(O)CN)=CC[C@H]3N)[C@@H](N)C[C@H]2NC(=O)[C@@H](O)CN)OC[C@]1(C)O (stereo partly drawn) [Example 20, 6′-(3-Amino-2-hydroxy-propionyl)-1-(3-amino-2(S)-hydroxy-propionyl)-sisomicin] | > 16 µg/mL | > 16 µg/mL |  |  | 
17 | CN[C@@H]1[C@@H](O)[C@@H](O[C@@H]2[C@@H](O)[C@H](O[C@H]3OC(CNCC(O)C(N)=O)=CC[C@H]3N)[C@@H](N)C[C@H]2NC(=O)[C@@H](O)CN)OC[C@]1(C)O (stereo partly drawn) [Example 21, 6′-(2-Hydroxy-3-propionamide)-1-(3-amino-2(S)-hydroxy-propionyl)-sisomicin] | 1 to 16 µg/mL (≈ 1.61 to 25.7 µM) | 1 to 16 µg/mL (≈ 1.61 to 25.7 µM) |  |  | 
18 | CN[C@@H]1[C@@H](O)[C@@H](O[C@@H]2[C@@H](O)[C@H](O[C@H]3OC(CNCC(O)CO)=CC[C@H]3N)[C@@H](N)C[C@H]2NC(=O)CO)OC[C@]1(C)O (some centres unmarked) [Example 23, 6′-(2-Hydroxy-propanol)-1-(2-hydroxy-acetyl)-sisomicin] | > 16 µg/mL | > 16 µg/mL |  |  | 
19 | CN[C@@H]1[C@@H](O)[C@@H](O[C@@H]2[C@@H](O)[C@H](O[C@H]3OC(CNCCCN)=CC[C@H]3N)[C@@H](N)C[C@H]2NC(=O)CO)OC[C@]1(C)O [Example 24, 6′-(3-Amino-propyl)-1-(2-hydroxy-acetyl)-sisomicin] | 1 to 16 µg/mL (≈ 1.78 to 28.4 µM) | 1 to 16 µg/mL (≈ 1.78 to 28.4 µM) |  |  | 
20 | CN[C@@H]1[C@@H](O)[C@@H](O[C@@H]2[C@@H](O)[C@H](O[C@H]3OC(CNCCO)=CC[C@H]3N)[C@@H](N)C[C@H]2NC(=O)CO)OC[C@]1(C)O [Example 25, 6′-(2-Hydroxy-ethyl)-1-(2-hydroxy-acetyl)-sisomicin] | 1 to 16 µg/mL (≈ 1.82 to 29.1 µM) | 1 to 16 µg/mL (≈ 1.82 to 29.1 µM) |  |  | 
21 | CNCC1=CC[C@@H](N)[C@@H](O[C@H]2C(O)[C@@H](O[C@H]3OC[C@](C)(O)[C@H](NC)[C@H]3O)[C@H](N)C[C@@H]2N)O1 (some centres unmarked) [Mono-substituted Compound 1, reference compound] |  |  |  |  | 1 µg/mL (≈ 2.17 µM)
22 | CN[C@@H]1[C@@H](O)[C@@H](O[C@@H]2C(O)[C@H](O[C@H]3OC(CNCC4CC4)=CC[C@H]3N)[C@@H](N)C[C@H]2N)OC[C@]1(C)O (some centres unmarked) [Mono-substituted Compound 2, reference compound] |  |  |  |  | 1 µg/mL (≈ 1.99 µM)
23 | CN[C@@H]1[C@@H](O)[C@@H](O[C@@H]2C(O)[C@H](O[C@H]3OC(CNCC4CCNCC4)=CC[C@H]3N)[C@@H](N)C[C@H]2N)OC[C@]1(C)O (some centres unmarked) [Mono-substituted Compound 3, reference compound] |  |  |  |  | 0.5 µg/mL (≈ 0.918 µM)
24 | CN[C@@H]1[C@@H](O)[C@@H](O[C@@H]2C(O)[C@H](O[C@H]3OC(CNCCCN)=CC[C@H]3N)[C@@H](N)C[C@H]2N)OC[C@]1(C)O (some centres unmarked) [Mono-substituted Compound 4, reference compound] |  |  |  |  | 2 µg/mL (≈ 3.96 µM)
25 | CN[C@@H]1C(O)[C@@H](O[C@@H]2[C@@H](O)[C@H](OC3OC(CN)=CC[C@H]3N)[C@@H](N)C[C@H]2NC(=O)[C@@H](O)CN)OC[C@]1(C)O (some centres unmarked) [Mono-substituted Compound 5, reference compound] |  |  |  |  | 0.5 µg/mL (≈ 0.935 µM)
26 | CN[C@@H]1C(O)[C@@H](O[C@@H]2[C@@H](O)[C@H](OC3OC(CN)=CC[C@H]3N)[C@@H](N)C[C@H]2NC(=O)[C@@H](O)CCN)OC[C@]1(C)O (some centres unmarked) [Mono-substituted Compound 6, reference compound] |  |  |  |  | 0.5 µg/mL (≈ 0.911 µM)
27 | CN[C@@H]1C(O)[C@@H](O[C@@H]2[C@@H](O)[C@H](OC3OC(CN)=CC[C@H]3N)[C@@H](N)C[C@H]2NC(=O)C2(O)CNC2)OC[C@]1(C)O (some centres unmarked) [Mono-substituted Compound 7, reference compound] |  |  |  |  | 1 µg/mL (≈ 1.83 µM)
